These results are taken from patent US20260207708A1, “THERAPEUTIC USES OF ADIPOSE-SECRETED SIGNALING PROTEIN (ADISSP)” (UNIVERSITY OF MASSACHUSETTS, priority 2023, published 2026).

Where two headings read alike, the source gives them in different places.

The subject of data set [1] is Akt. The data set can be described thus: Akt activation in serum-starved brown adipocytes. The data set is classed as cell-based. Conditions: for blocking of Akt activation by ADISSP: adipocytes pre-treated with inhibitor 2 hr: S961 0.5 μM, Melittin 1 μM, Gallein 5 μM, wortmannin 1 μM, LDC1267 1 μM, then ADISSP 300 nM 30 min. The method, then: (§1) In some cases adipocytes were pre-treated with inhibitors for 2 hr: S961 (0.5 μM), Melittin (1 μM), Gallein (5 μM), wortmannin (1 μM), and LDC1267 (1 μM).

Data set [2] concerns DIO mice. The data set can be described thus: Two-week treatment of high fat-induced obese (DIO) mice. Type of data set: in vivo. The following applies: 65 nmole/kg ip once a day, 14 injections. As to the method:
In the experiment shown in FIGS. 7A-G, all daily glucose levels were measured 24-hr post ADISSP injection. A much stronger glucose reduction would have been observed if measured at earlier time points, e.g., at 6-hr or 12-hr following protein injection. […] Male mice (n=19 mice/group) were fed a high fat diet for 20 weeks to render them obese and hyperglycemia. Mice were then ip injected with ADISSP protein (65 nmole/kg) once a day at 8 am for a total of 14 injections. Glucose levels at ad libitum state were measured at 7:30 am, […]. Insulin levels and livers were examined.

The subject of data set [3] is STZ-induced type 1 diabetic mice. Description: Low-dose streptozotocin (STZ)-induced type 1 diabetic mice. Type of data set: in vivo. The following applies: STZ 50 mg/kg daily Day 1 to Day 5. As to the method:
(§2) The effects of ADISSP protein administration on blood glucose and polyuria were evaluated in streptozotocin (STZ)-induced type 1 diabetic mice. A single dose (200 mg/kg) of STZ was ip injected into C57BL6 mice. Eight days post injection, as expected, high-dose STZ caused extremely severe type 1 diabetes with ad libitum glucose level (>600 mg/dL) exceeding the upper limit of the glucose meter. The mice were ip injected with ADISSP protein (50 nmole/kg) or vehicle at 0 hr and 24 h. After each injection, mice were fasted for 6 hours before glucose measurement so the glucose level in the vehicle group would fall below 600 mg/dL. […] We were not able to continue the experiment because the mice were not healthy due to the high dose of STZ. To account for this, a low dose (50 mg/kg) of STZ was injected daily from Day 1 to Day 5 to produce healthy, type 1 diabetes mice. From Day 13, glucose was measured at 7:30 am followed by ip injection of ADISSP protein (70 nmole/kg) or vehicle once a day at 8 am for two weeks. At Day 13, glucose was measured after 2 hour fasting, all other time points were measured at ad libitum state.

In a further data set the test system is tyrosine phosphorylation. The data set can be described thus: Tyrosine phosphorylation in serum-starved brown adipocytes. The data set is classed as cell-based. Conditions: ADISSP 300 nM, 30 min. The method, then: as §1
The subject of data set [4] is insulin receptor substrate 1 (IRS1). Description: IRS1 activation in serum-starved brown adipocytes. Type of data set: cell-based. The following applies: ADISSP 300 nM, 30 min. The method, then: as §1
Data set [5] relates to ob/ob mice. The data set can be described thus: ob/ob mice, single dose then once every 48 hours. Type of data set: in vivo. The method, then: The effects of injection of purified ADISSP protein were evaluated on hyperglycemia, hyperinsulinemia, and liver steatosis in ob/ob mice (6 male and 9 female mice in control group and 5 male and 10 female mice in treatment group), which were used as a type 2 diabetic mouse model. The mice were injected intraperitoneally with vehicle or a single dose of purified ADISSP protein (50 nmole/kg). Glucose was monitored for 46 hours. Note, no food was provided in the first 8 hours. […] The glucose-lowering effect of ADISSP protein was not due to any difference of food intake, as there was no food provided in the first 8 hours. 46 hours post the first injection, ob/ob mice were injected with ADISSP (50 nmole/kg) once every 48 hour at 8 am (arrow). Mice were fed ad libitum.

The subject of data set [6] is Akt. Description: Akt activation in adipose tissue in vivo after single ip dose. Further details: species or system mice. Conditions: 70 nmole/kg ip, 3 hr after injection. As to the method:
(§3) To explore the mechanism of ADISSP action in vivo, 3-month-old male mice (n=4/group) with euglycemia were intraperitoneally (ip) injected with purified ADISSP protein (70 nmole/kg) at 0 hr. Glucose and insulin levels and Akt activation were measured 3 hr after injection.

A further data set deals with GAN diet NASH mice. Description: Gubra Amylin NASH (GAN) diet mice: NASH and cardiac hypertrophy. Type of data set: in vivo, C57BL6J mice. The source says: To examine the potential effects of Adissp protein on NASH, we fed wild-type male C57BL6J mice with the Gubra Amylin NASH (GAN) diet (Research Diets, D09100310) for 32 weeks to induce a NASH phenotype resembling human NASH. We then treated these mice with Adissp (113 nmole/kg per day) or vehicle. […] At Day 16 of the treatment, a sub-group of mice were sacrificed and NASH phenotype was examined. […] Thus, treatment with Adissp protein rapidly resolved the NASH phenotype.
The remaining mice were continuously treated with 63 nmole/kg per day Adissp protein or vehicle for 31 days.

Another data set relates to Glut4. The data set can be described thus: Glut4 trafficking to the plasma membrane in Myc-Glut4-GFP transfected adipocytes. Type of data set: cell-based. The following applies: adipocytes serum-starved overnight, treated 30 min; for Glut4 localization to the plasma membrane: Myc staining without permeabilization. The method, then: To evaluate effects of ADISSP on Glut4 trafficking to the plasma membrane, adipocytes were transfected with a Myc-Glut4-GFP plasmid, in which Myc and GFP were fused to the extracellular and intracellular regions of Glut4, respectively. The Adipocytes were serum-starved overnight, and then treated with purified ADISSP protein or insulin for 30 min. The adipocytes were fixed without permeabilization, and stained with Myc antibody and DAPI. […] 95% of GFP-positive cells were also Myc-positive after either ADISSP or insulin treatment, while very few GFP-positive cells were Myc-positive in control samples.

Another data set has as its system euglycemic mice. The data set is classed as in vivo. Conditions: 70 nmole/kg ip, 3 hr after injection. As to the method:
as §3

The subject of data set [7] is DIO mice. The data set is classed as in vivo. The following applies: 71 nmole/kg per day ip, one month. The method, then: We next performed a one-month treatment of hyperglycemic DIO mice (n=19-20 DIO mice/group) with purified ADISSP protein. Glucose levels were measured every day at 7:30 am followed by daily intraperitoneal injection of ADISSP (71 nmole/kg per day). […] Hypertriglyceridemia (FIG. 9J) and high level of Aspartate aminotransferase (AST) (indicative of liver damage caused by fatty liver) (FIG. 9K) were normalized as well.

The test system of data set [8] is STZ-induced type 1 diabetic mice. Description: High-dose streptozotocin (STZ)-induced type 1 diabetic mice. Conditions: STZ 200 mg/kg single dose, ADISSP 50 nmole/kg ip at 0 hr and 24 h. The data set is classed as in vivo, C57BL6 mice. The method, then:
as §2

The subject of data set [9] is ob/ob mice. Type of data set: in vivo. The method, then: To evaluate longer-term effects of treatment with ADISSP, 12-week ob/ob mice (6 male and 8 female mice in control group and 8 male and 8 female mice in treatment group) were used. Glucose levels were measured at 7 am daily. Vehicle or ADISSP protein (62.6 nmole/kg per day) was ip injected once a day at 8 am for 30 days. […] In addition, after one-month treatment of ob/ob mice with ADISSP protein, bone density was examined by X-Ray. […] Instead, a slight increase was observed, as shown in the region in the box in FIG. 7G. Loss of bone density is associated with FGF21 and diabetes drug TZDs.

Setting [10] is: 113 nmole/kg per day, Day 16 of treatment.
The mark [11] stands for this setting: 62.6 nmole/kg per day ip, 30 days.

In the case of `CC[C@H](C)[C@H](NC(=O)CN)C(=O)NCC(=O)N[C@@H](C)C(=O)N[C@H](C(=O)N[C@@H](CC(C)C)C(=O)N[C@@H](CCCCN)C(=O)N[C@H](C(=O)N[C@@H](CC(C)C)C(=O)N[C@H](C(=O)N[C@H](C(=O)NCC(=O)N[C@@H](CC(C)C)C(=O)N1CCC[C@H]1C(=O)N[C@@H](C)C(=O)N[C@@H](CC(C)C)C(=O)N[C@H](C(=O)N[C@@H](CO)C(=O)N[C@@H](Cc1c[nH]c2ccccc12)C(=O)N[C@H](C(=O)N[C@@H](CCCCN)C(=O)N[C@@H](CCCNC(=N)N)C(=O)N[C@@H](CCCCN)C(=O)N[C@@H](CCCNC(=N)N)C(=O)N[C@@H](CCC(N)=O)C(=O)N[C@@H](CCC(N)=O)C(N)=O)[C@@H](C)CC)[C@@H](C)CC)[C@@H](C)O)[C@@H](C)O)C(C)C)C(C)C` [Melittin], the “blocking of Akt activation by ADISSP” value in the data set on Akt [1] is recorded as “not blocked”.
As for “ADISSP: recombinant adipose-secreted signaling protein with C-terminal His-tag, purified from medium of transfected Expi293F cells”, in the data set with DIO mice [2], the fatty liver result was “amelioration of fatty liver”, the hyperinsulinemia result is recorded as “reduced hyperinsulinemia” and the liver weight entry is reported as “reduction of liver weight”. In addition, the daily glucose levels result in the data set on DIO mice [2] (ad libitum, 6 hr, 12 hr and 24 hr from injection) is on record as “clear improvement in daily glucose levels”. For the same compound, in data set [3] (ADISSP 70 nmole/kg ip once a day for two weeks), the polyuria entry is on record as “improved polyuria”. Also, the blood glucose entry in [3] (ADISSP 70 nmole/kg ip once a day for two weeks from Day 13) is given as “markedly lowered blood glucose”. For the same compound, the tyrosine phosphorylation result in the data set with tyrosine phosphorylation was “induces a bulk of tyrosine phosphorylation”. In addition, the “activation of insulin receptor substrate 1 (IRS1)” value in data set [4] is recorded as “did not activate”. Moreover, in the data set on ob/ob mice [5] (50 nmole/kg once every 48 hour), the “duration of glucose-lowering effect after each subsequent injection” value is “at least 48 hours” and the hyperinsulinemia entry is on record as “improvement in hyperinsulinemia”. For the same compound, the “glucose lowered on average” value with ob/ob mice [5] (50 nmole/kg once every 48 hour, fed ad libitum) is reported as 83.5 mg/dL. The liver steatosis entry with ob/ob mice [5] (50 nmole/kg once every 48 hour, liver colour and histology) is reported as “improved”. Also, in the data set with ob/ob mice [5] (injection once every 48 hours), the hyperglycemia entry is listed as “sufficient to normalize hyperglycemia”. For the same compound, in the data set on ob/ob mice [5] (post injection), the “onset of glucose lowering” value is reported as “two”. The “duration of glucose-lowering effect of a single dose” value with ob/ob mice [5] (single dose 50 nmole/kg ip) is “more than 20 hours”. Also, in the data set with Akt [6], the “Akt activation in vivo (BAT, iWAT, eWAT)” value is recorded as “activated Akt in vivo”. Also, in the data set with GAN diet NASH mice (setting [10]), the “fibrosis (Sirius Red staining)” value was “greatly alleviated”; the “hepatomegaly (liver size and weight)” value is “ameliorated”; the inflammation result was “ameliorated”; the steatosis entry was “ameliorated”. Further, in the data set on GAN diet NASH mice (GAN diet 32 weeks, 113 nmole/kg per day), the “hyperglycemia (blood glucose)” value is reported as “normalized hyperglycemia”. In addition, the “cardiac hypertrophy (heart weight and size)” value in the data set on GAN diet NASH mice (remaining mice continued at 63 nmole/kg per day for 31 days) is “resolved high fat diet-induced cardiac hypertrophy”. Also, in the data set on Glut4, the “GFP-positive cells also Myc-positive” value was 95% and the “Glut4 localization to the plasma membrane” value was “induced Glut4 localization to the plasma membrane”. Also, the Akt activation result in the data set on Akt [1] (serum-starved brown adipocytes, ADISSP 300 nM, 30 min) is listed as “activates Akt independently of insulin receptor”. Moreover, in the data set on euglycemic mice, the insulin secretion entry is given as “did not stimulate insulin secretion”. For the same compound, the blood glucose level result in the data set on euglycemic mice (3-month-old male mice) is “lowers blood glucose level”. In the data set on DIO mice [7], the “Aspartate aminotransferase (AST) level” value is listed as “normalized”, the body weight result is “decreased body weight”, the fat mass entry is “reduction of fat mass” and the fatty liver result was “completely reversed fatty liver”. In the data set on DIO mice [7], the glucose tolerance result is reported as “markedly improved”, the “hyperglycemia (daily glucose levels)” value is “completely normalized hyperglycemia”, the “hypertriglyceridemia (serum triglycerides)” value is “normalized” and the insulin sensitivity result is listed as “markedly improved”. In addition, in the data set with DIO mice [7], the lean mass entry is reported as “but not lean mass”, the liver weight entry is listed as “normalized liver weight” and the surface body temperature entry is on record as “higher surface body temperature”. In addition, the polyuria result in data set [8] was “improvement in polyuria”. In data set [8] (6 hours fasted after each injection), the “decrease of glucose levels” value is recorded as 41-48%. For the same compound, in the data set on ob/ob mice [9] (setting [11]), the body weight gain entry was “reduced body weight gain”, the glucose tolerance entry is on record as “improved glucose tolerance”, the insulin sensitivity result is recorded as “improved” and the liver steatosis result was “ameliorated liver steatosis”. In addition, the “hyperglycemia (daily glucose levels)” value in the data set on ob/ob mice [9] (62.6 nmole/kg per day ip, 30 days, glucose measured 24-hr post injection) is recorded as “normalized hyperglycemia”. Besides, the “bone density by X-Ray” value in the data set on ob/ob mice [9] (mouse, in vivo) is given as “did not see decreased bone density. Instead, a slight increase was observed”.
Consider `CCOc1cn(-c2ccc(F)cc2C)nc1C(=O)Nc1ccc(Oc2ccnc3cc(OC)c(OC)cc23)c(F)c1` [LDC1267], for which the “blocking of Akt activation by ADISSP” value with Akt [1] is on record as “blocks”.
With insulin [reference compound], in the data set with Glut4, the “GFP-positive cells also Myc-positive” value amounted to 95% and the “Glut4 localization to the plasma membrane” value was “induced Glut4 localization to the plasma membrane”.
For `O=C1OC2(c3ccccc31)c1ccc(O)c(O)c1Oc1c2ccc(O)c1O` [Gallein], the “blocking of Akt activation by ADISSP” value in the data set on Akt [1] is reported as “not blocked”.
